# Results from patent publication US4080381A, “Water soluble tertiary amine boranes” (Mine Safety Appliances Company, priority 1976, dated 1978).
# Key:
# [1] = water solubility of the amine boranes; format: physicochemical
# Description: Two Hundred milliliters of distilled dimethylsulfide (DMS) and 122.5 g (523.5 mmol) of CH3 O(C2 H4 O)3 C2 H4 N(CH3)2 were added to a one liter three necked flask equipped with a magnetic stirring bar, a thermometer and a 250 ml pressure equalizing dropping funnel. 41.4 grams (523.5 mmol) of dimethylsulfide borane (DMSB) was added to the funnel. The DMSB was added dropwise over the next hour while maintaining the reaction vessel temperature between 7°-15° C with ice water cooling. After the reaction was complete, the DMS solvent was removed under vacuum.
# (1) 62.0 g (530 mmol) of CH3 CH2 OC2 H4 N(CH3)2 and 41.7 g (530 mmol) of DMSB were reacted in the same manner as example 1.
# 33.7 g (229.2 mmol) of CH3 OC2 H4 OC2 H4 N(CH3)2 and 18.1 g (230 mmol) of DMSB were reacted in the same manner as example (1). The resulting liquid amine borane has an approximate water solubility of 200 g/l of solution.
# 113.2 g (1099 mmol) of CH3 OC2 H4 N(CH3)2 and 87.3 g (1099 mmol) DMSB were reacted in the same manner as example 1. […] Inert solvents, such as hydrocarbon or ether solvents, can be used partially or wholly in place of the DMS. Temperature, pressure and reaction proportions are not critical, although it is generally most convenient to use stoichimetric proportions at atmospheric pressure and room temperature or below.
# [2] = electroless gold plating: reduction of gold salt solution on palladium chloride activated nickel plate; details: mixed with KAuCl4 solution, pH 12.5
# Description: The amine boranes of this invention are useful as reducing agents in aqueous solutions. For example, solutions of gold salts are reduced by the water soluble amine boranes to plate gold on a catalytically active surface contacted with the solution, as is more fully described in the above referenced co pending application. To illustrate, the pH of one hundred ml of a 3.0 g/l solution of KAuCl4 was raised to 12.5 by the addition of NaOH. In a separate beaker, the pH of 100 ml of a 2.00g/l solution of CH3 OCH2 CH2 N(CH3)2 :BH3 was also raised to 12.5 by the addtion of NaOH. […] A palladium chloride activated substrate of nickel plate was immersed in the stirred bath for one hour at room temperature.
smiles,measurement,setting,value
[BH3-][N+](C)(C)CCOC [Example 4],limiting solubility in water,[1]; in water,38 g/l of solution
same,appearance and stability of mixed plating solution,[2],clear and stable
[BH3-][N+](C)(C)CCOCCOCCOCCOC [Example 1],water solubility (in words),[1]; in water,very soluble in water
[BH3-][N+](C)(C)CCOCCOC [Example 3],approximate water solubility,[1]; in water,~200 g/l of solution
[BH3-][N+](C)(C)CCOCC [Example 2],solubility in water,[1]; in water at 25° C,17 mg/mL
